These results are taken from patent US11628181B2, “N4-hydroxycytidine and derivatives and anti-viral uses related thereto” (Emory University, priority 2014, dated 2023).

One data set relates to CHIKV. The data set is described as follows: microbe, parasite or virus in culture. To be noted: Chikungunya virus.
A further data set has as its system U2OS cell line. Briefly: Cell viability, U2OS cell line (Chikungunya screen).
In a further data set the test system is Chikungunya virus. Briefly: Chikungunya virus (MOI 0.5) viral inhibition in U2OS cell line. Format: cell-based. To be noted: for inhibition at 10 µM: read-out: Viral Inh. 10 uM; for inhibition at 50 µM: read-out: Viral Inh. 50 uM.
The next data set concerns VEEV. The data set is described as follows: microbe, parasite or virus in culture. Format: cell-based. As to conditions: Venezuelan equine encephalitis virus, HeLa; for inhibition at 10 µM: read-out: Viral Inh. 10 uM; for inhibition at 50 µM: read-out: Viral Inh. 50 uM.
Another data set deals with HeLa. To be noted: human.

As a reminder, the EC50 is the midpoint of the concentration-response curve. A high value points to a need for much substance.

In the data set “in vitro”, `O=c1nc(NO)ccn1[C@@H]1O[C@H](CO)C(O)[C@@H]1O` (stereo partly drawn) [EIDD-02200-01] displayed a CC50 greater than 500 µM. In addition, the EC50 in the data set with CHIKV is greater than 78 µM.
`CCOP(=O)(OCC)OC[C@H]1O[C@@H](n2ccc(NO)nc2=O)[C@@H](O)C1O` (stereo partly drawn) [EIDD-02503-01] displayed a CC50 in “in vitro” greater than 500 µM. This compound also gave an EC50 with CHIKV greater than 78 µM.
As for `O=c1nc(NO)c(F)cn1[C@@H]1O[C@H](CO)C(O)C1O` (stereo partly drawn) [drawing 76], in the data set on U2OS cell line, the “Cell Viability 10 uM” value is reported as 81% ± 4% (n = 4) and the “Cell Viability 50 uM” value is given as 53% ± 2% (n = 4). Further, in the data set with Chikungunya virus, the inhibition at 10 µM was 8% and the inhibition at 50 µM came out at 51%.
Regarding `CCCCCCCNC(=O)OC[C@H]1O[C@@H](n2ccc(NO)nc2=O)C(O)[C@H]1O` (stereo partly drawn) [EIDD-02475-01], the CC50 in the data set “in vitro” is greater than 500 µM. Besides, the EC50 in the data set with CHIKV was greater than 78 µM.
On to `CCCCCCCOC(=O)ONc1ccn([C@@H]2O[C@H](CO)C(O)C2O)c(=O)n1` (stereo partly drawn) [drawing 74], for which, in the data set with U2OS cell line, the “Cell Viability 10 uM” value is 93% ± 4% (n = 4) and the “Cell Viability 50 uM” value is on record as 79% ± 8% (n = 4). In addition, in the data set with Chikungunya virus, the inhibition at 10 µM turned out to be 72% and the inhibition at 50 µM stood at 98%.
As for `CCCCCCCCCCCCCCCCNC(=O)ONc1ccn([C@@H]2O[C@H](CO)[C@H](O)C2O)c(=O)n1` (stereo partly drawn) [EIDD-02356-01], the CC50 in “in vitro” came out at 211 µM. The EC50 in the data set with CHIKV is greater than 78 µM.
`O=c1nc(NO)cc[nH]1` [EIDD-02504-01] showed a CC50 in “in vitro” greater than 500 µM. The EC50 in the data set on CHIKV is greater than 78 µM.
In the same order, the values of `CNC(=O)ONc1ccn([C@@H]2O[C@H](CO)C(O)[C@@H]2O)c(=O)n1` (stereo partly drawn) [EIDD-02422-01] are greater than 500 µM and 32 µM.
In the same order, the values of `CCCCCCCCC(=O)OC[C@H]1O[C@@H](n2ccc(NO)nc2=O)C(O)[C@H]1O` (stereo partly drawn) [EIDD-02476-01] are 154 µM and 0.3 µM.
In the case of `O=c1ccn([C@@H]2O[C@H](CO)C(O)[C@]23CC3(F)F)c(=O)[nH]1` (stereo partly drawn) [EIDD-02339-01], in the data set “in vitro”, the CC50 was greater than 500 µM. The EC50 in the data set with CHIKV was greater than 78 µM.
In the same order, the values of `CCCCCCCCCCCCCCCCCCNC(=O)ONc1ccn([C@@H]2O[C@H](CO)[C@H](O)C2O)c(=O)n1` (stereo partly drawn) [EIDD-02357-01] are 90 µM and greater than 78 µM.
On to `CCCCCCCNC(=O)ONc1ccn([C@@H]2O[C@H](CO)C(O)C2O)c(=O)n1` (stereo partly drawn) [drawing 77], for which, in the data set with U2OS cell line, the “Cell Viability 10 uM” value was 105% ± 2% (n = 4) and the “Cell Viability 50 uM” value is given as 96% ± 11% (n = 4). In the data set on Chikungunya virus, the inhibition at 10 µM was 14% and the inhibition at 50 µM is 70%.
As for `C#C[C@@]1(O)C(O)[C@@H](COP(=O)(OCOC(=O)C(C)(C)C)OCOC(=O)C(C)(C)C)O[C@H]1n1ccc(=O)[nH]c1=O` (stereo partly drawn) [EIDD-02290-01], the CC50 in the data set “in vitro” was 274 µM. In the data set with CHIKV, this compound gave a half-maximal effective concentration (EC50) of 64.4 µM.
`CCCCCCCOC(=O)OC[C@H]1O[C@@H](n2ccc(NO)nc2=O)C(O)[C@H]1O` (stereo partly drawn) [EIDD-02474-01] returned a CC50 in the data set “in vitro” of 184 µM. Further, a half-maximal response with CHIKV (EC50) required 0.07 µM.
In the same order, the values of `O=c1ccn([C@@H]2O[C@H](CO)C(O)[C@@]23CC3(F)F)c(=O)[nH]1` (stereo partly drawn) [EIDD-02340-01] are greater than 500 µM and greater than 78 µM.
On to `O=c1nc(NO)c(F)cn1[C@@H]1O[C@H](CO)C(O)C1O` (stereo partly drawn) [drawing 81], for which, in the data set on VEEV, the inhibition at 10 µM was 61% and the inhibition at 50 µM was determined as 98%. In the data set on HeLa, the “Cell Viability 10 uM” value was 55% ± 4% (n = 4) and the “Cell Viability 50 uM” value was 36% ± 2% (n = 4).
Take `CN(C)C(=O)ONc1ccn([C@@H]2O[C@H](CO)[C@H](O)C2O)c(=O)n1` (stereo partly drawn) [EIDD-02423-01]: the CC50 in “in vitro” is greater than 500 µM. This compound registered an EC50 with CHIKV of 25 µM.
In the same order, the values of `CCCCCCCNC(=O)ONc1ccn([C@@H]2O[C@H](CO)[C@H](O)C2O)c(=O)n1` (stereo partly drawn) [EIDD-02107-01] are 165 µM and 29 µM.
In the same order, the values of `[2H]C([2H])(O)[C@H]1O[C@@H](n2ccc(NO)nc2=O)[C@@H](O)C1O` (stereo partly drawn) [EIDD-02345-01] are greater than 500 µM and 1.5 µM.
On to `C[C@@]1(O)C2OP(=O)(Oc3ccccc3)OC[C@H]2O[C@H]1n1ccc(=O)[nH]c1=O` (stereo partly drawn) [EIDD-01872-01], for which the CC50 in the data set “in vitro” was greater than 500 µM. In the data set on CHIKV, this compound gave an EC50 greater than 78 µM.
In the same order, the values of `[2H]c1cn([C@@H]2O[C@H](CO)C(O)[C@@H]2O)c(=O)nc1NO` (stereo partly drawn) [EIDD-02261-01] are greater than 500 µM and 1.5 µM.
`CCCCCCCNC(=O)ONc1ccn([C@@H]2O[C@H](CO)C(O)C2O)c(=O)n1` (stereo partly drawn) [drawing 82]: in the data set with VEEV, the EC50 came to 6 µM, the inhibition at 10 µM is 93% and the inhibition at 50 µM is 100%. For the same compound, in the data set on HeLa, the “Cell Viability 10 uM” value is recorded as 151% ± 16% (n = 4) and the “Cell Viability 50 uM” value was 126% ± 7% (n = 4).
In the data set “in vitro”, `O=c1nc(NO)ccn1[C@@H]1O[C@H](CO)[C@H](O)C1F` (stereo partly drawn) [EIDD-02085-01] gave a CC50 greater than 500 µM. In the data set on CHIKV, this compound returned a concentration for a half-maximal effect (EC50) greater than 75 µM.
With `O=c1nc(NO)ccn1[C@@H]1O[C@H](CO)C(O)C1O` (stereo partly drawn) [drawing 73], in the data set with U2OS cell line, the “Cell Viability 10 uM” value is recorded as 97% ± 5% (n = 4) and the “Cell Viability 50 uM” value is 79% ± 10% (n = 4). In the data set with Chikungunya virus, the inhibition at 10 µM was determined as 80% and the inhibition at 50 µM was found to be 100%.
Compound `CC(C)(C)C(=O)OCOP(=O)(OCOC(=O)C(C)(C)C)OC[C@H]1O[C@@H](n2ccc(=O)[nH]c2=O)[C@](C)(O)C1O` (stereo partly drawn) [EIDD-02416-01] showed a CC50 in the data set “in vitro” of 53 µM. Moreover, a half-maximal effect in the data set with CHIKV (EC50) was put at 27 µM.
In “in vitro”, `CC(C)(C)C(=O)OCOP(=O)(OCOC(=O)C(C)(C)C)OC[C@H]1O[C@@H](n2ccc(=O)[nH]c2=O)[C@](C)(F)C1O` (stereo partly drawn) [EIDD-02427-01] gave a CC50 of 355 µM. In addition, the EC50 in the data set on CHIKV came to 58 µM.
In the same order, the values of `CC(C)(C)C(=O)OCOP(=O)(OCOC(=O)C(C)(C)C)OC[C@@]1(N=[N+]=[N-])O[C@@H](n2ccc(=O)[nH]c2=O)[C@@H](O)C1O` (stereo partly drawn) [EIDD-02110-03] are 387 µM and 56 µM.
In the same order, the values of `CC1(F)[C@@H](O)[C@@H](CO)O[C@H]1n1ccc(NO)nc1=O` (stereo partly drawn) [EIDD-02080-01] are greater than 500 µM and greater than 75 µM.
Take `CC(C)OC(=O)[C@H](C)NP(=O)(OC[C@H]1O[C@@H](n2ccc(NO)nc2=O)C(O)C1O)Oc1ccccc1` (stereo partly drawn) [drawing 75]: in the data set on U2OS cell line, the “Cell Viability 10 uM” value was 99% ± 6% (n = 4) and the “Cell Viability 50 uM” value is on record as 99% ± 8% (n = 4). In the data set with Chikungunya virus, the inhibition at 10 µM was 3% and the inhibition at 50 µM was found to be 36%.
On to `CC(C)OC(=O)[C@H](C)NP(=O)(OC[C@H]1O[C@@H](n2ccc(NO)nc2=O)C(O)C1O)Oc1ccccc1` (stereo partly drawn) [drawing 80], for which, in the data set with VEEV, a half-maximal effect (EC50) was put at 16.2 µM, the inhibition at 10 µM was 73% and the inhibition at 50 µM stood at 100%. Moreover, in the data set with HeLa, the “Cell Viability 10 uM” value is 137% ± 16% (n = 4) and the “Cell Viability 50 uM” value is 134% ± 16% (n = 4).
In “in vitro”, `O=c1nc(NO)ccn1[C@@H]1O[C@H](COP2(=O)OCc3ccccc3O2)C(O)[C@@H]1O` (stereo partly drawn) [EIDD-02207-01] had a CC50 greater than 500 µM. This compound registered an EC50 in the data set on CHIKV of 10.8 µM.
In the same order, the values of `NNc1ccn([C@@H]2O[C@H](CO)C(O)[C@@H]2O)c(=O)n1` (stereo partly drawn) [EIDD-01910-01] are greater than 500 µM and greater than 78 µM.
Consider `CCCCCCCCCCCCCCCCOCCCOP(=O)(O)OC[C@H]1O[C@@H](n2ccc(NO)nc2=O)[C@@H](O)C1O` (stereo partly drawn) [EIDD-02108-03], for which the CC50 in “in vitro” turned out to be 98 µM. The response in the data set on CHIKV was half-maximal at 34.5 µM (EC50).
